Reference: ChEMBL document CHEMBL1141161, “Structure of aldehyde reductase holoenzyme in complex with the potent aldose reductase inhibitor fidarestat: implications for inhibitor binding and selectivity” (J Med Chem, 2005)

Target: T1, Aldo-keto reductase family 1 member A1 (Sus scrofa, UniProt P50578)
T1 sequence (P50578 whole entry): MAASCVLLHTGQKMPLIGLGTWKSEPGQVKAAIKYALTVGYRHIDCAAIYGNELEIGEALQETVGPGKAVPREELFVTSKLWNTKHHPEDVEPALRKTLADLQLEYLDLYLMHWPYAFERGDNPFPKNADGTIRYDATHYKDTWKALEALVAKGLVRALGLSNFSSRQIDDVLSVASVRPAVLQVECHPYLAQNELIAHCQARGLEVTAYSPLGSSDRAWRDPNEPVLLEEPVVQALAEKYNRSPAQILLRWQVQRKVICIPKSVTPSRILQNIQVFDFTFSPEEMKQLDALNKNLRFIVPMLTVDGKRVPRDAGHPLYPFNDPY
Test: Inhibitory concentration against porcine ALR1 Aldehyde reductase using DL-glyceraldehyde

IC50 [µM]	SMILES
17.8	NC(=O)[C@H]1C[C@]2(NC(=O)NC2=O)c2cc(F)ccc2O1
2.5	NC(=O)[C@@H]1C[C@]2(NC(=O)NC2=O)c2cc(F)ccc2O1
